Some test systems named below: OVCAR-4 ovarian; OVCAR-8 ovarian; HCT-116 colon; TK-10 renal; NCI-H226 lung; CAKI-1 renal; PC-3 prostate; HCC-2998 colon; MCF7 breast; MDA-MB-435.
What all share (assay): growth of human tumour cells (NCI), 48 h

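96-well plates; 48 h exposure; 5 concentrations. Endpoints by linear interpolation between flanking doses. Not reached: highest tested concentration assigned. GI50 = concentration required for 50% inhibition of growth. The concentration for full growth arrest is given as TGI.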

This passage reports GI50 and TGI results from PubChem BioAssay (NCI).

Regarding `CS(=O)(=O)N(c1cc(-c2ccc3ncnc(Nc4cccc(Cl)c4)c3c2)cnc1Cl)S(C)(=O)=O`, the GI50 is 1040 nM in the experiment on OVCAR-4 ovarian; 1580 nM in the experiment with OVCAR-8 ovarian; 622 nM in the experiment with HCT-116 colon; 145 nM in the experiment on TK-10 renal; 1040 nM with NCI-H226 lung; 281 nM in the experiment with CAKI-1 renal. Further, the GI50 in the experiment with PC-3 prostate is 539 nM; in the experiment with HCC-2998 colon it was 690 nM; in the experiment with MCF7 breast, 230 nM; with MDA-MB-435, 443 nM. Also, the TGI is 10400 nM in the experiment with OVCAR-4 ovarian; over 100000 nM with OVCAR-8 ovarian; 3740 nM with HCT-116 colon; 985 nM in the experiment on TK-10 renal; 9750 nM with NCI-H226 lung; 2080 nM with CAKI-1 renal. Moreover, the TGI in the experiment with PC-3 prostate stood at 3630 nM; in the experiment with HCC-2998 colon, 2530 nM; with MCF7 breast it was 9690 nM; in the experiment on MDA-MB-435, 4070 nM.

As for `C/C(=N\NC(=S)N(C)C)c1ccccn1`, the TGI was 10400 nM in the experiment on OVCAR-4 ovarian; 10800 nM in the experiment on OVCAR-8 ovarian; 10700 nM in the experiment with TK-10 renal; 5100 nM in the experiment with NCI-H226 lung; 12500 nM in the experiment with CAKI-1 renal; 15900 nM with PC-3 prostate. The TGI was determined as 15000 nM in the experiment on HCC-2998 colon, 13400 nM with MCF7 breast and 18500 nM with MDA-MB-435. Also, the GI50 in the experiment on OVCAR-8 ovarian was 3.18 nM; in the experiment on HCT-116 colon, 0.123 nM; in the experiment on TK-10 renal, 2.79 nM; with NCI-H226 lung it was 64.5 nM; in the experiment with CAKI-1 renal, 56.7 nM; in the experiment on PC-3 prostate, 132 nM. For the same molecule, the GI50 with MDA-MB-435 was 4.01 nM.

Consider `CCCCCCCCCCCCCCCC1=NC(C)(C)CN1C(C)C`, for which the GI50 with OVCAR-4 ovarian was 2040 nM; in the experiment on OVCAR-8 ovarian, 1720 nM; in the experiment on HCT-116 colon it was 1220 nM; in the experiment on TK-10 renal it was 1440 nM; in the experiment with NCI-H226 lung, 2130 nM; in the experiment with CAKI-1 renal, 1130 nM. Besides, the GI50 is 1370 nM with PC-3 prostate, 1350 nM with HCC-2998 colon, 1550 nM in the experiment with MCF7 breast and 1440 nM with MDA-MB-435. Also, the TGI was found to be 6370 nM in the experiment on OVCAR-4 ovarian; 3580 nM in the experiment on OVCAR-8 ovarian; 2460 nM with HCT-116 colon; 2740 nM in the experiment on TK-10 renal; 6600 nM with NCI-H226 lung; 2530 nM in the experiment with CAKI-1 renal. Further, the TGI was found to be 3680 nM in the experiment with PC-3 prostate, 2640 nM with HCC-2998 colon, 3010 nM in the experiment with MCF7 breast and 2930 nM in the experiment with MDA-MB-435.

Regarding `O=c1oc2c(C(F)(F)F)cccc2cc1-c1csc(Nc2ccc(OCCF)cc2)n1`, the GI50 in the experiment with OVCAR-4 ovarian was 77 nM; in the experiment with OVCAR-8 ovarian it was 39.3 nM; in the experiment with HCT-116 colon, 32 nM; in the experiment on TK-10 renal it was 83.8 nM; in the experiment on NCI-H226 lung, 587 nM; with CAKI-1 renal it was 52.1 nM. Further, the GI50 in the experiment on PC-3 prostate is 44.6 nM; in the experiment with HCC-2998 colon it was 42.3 nM; in the experiment with MCF7 breast, 42.7 nM; in the experiment on MDA-MB-435, 32.4 nM. In addition, the TGI in the experiment with OVCAR-4 ovarian was over 66700 nM; in the experiment with OVCAR-8 ovarian, 7660 nM; in the experiment with HCT-116 colon, 540 nM; with TK-10 renal, 81000 nM; in the experiment on NCI-H226 lung it was 72300 nM; in the experiment on CAKI-1 renal, over 34700 nM. The TGI with PC-3 prostate is over 100000 nM; with HCC-2998 colon, over 100000 nM; in the experiment on MCF7 breast, over 37600 nM; in the experiment on MDA-MB-435, over 100000 nM.

As for `O=C1C(Cl)=C(Nc2cccc(C(F)(F)F)c2)C(=O)N1Cc1ccc(Cl)cc1`, the GI50 in the experiment on OVCAR-4 ovarian was 5320 nM; in the experiment on OVCAR-8 ovarian, 699 nM; with HCT-116 colon, 70.5 nM; in the experiment with TK-10 renal, 1080 nM; in the experiment with NCI-H226 lung it was under 12.9 nM; with CAKI-1 renal it was 289 nM. Also, the GI50 was 298 nM in the experiment with PC-3 prostate and 835 nM in the experiment on HCC-2998 colon. The TGI with OVCAR-4 ovarian is over 50900 nM; in the experiment with OVCAR-8 ovarian, 23300 nM; in the experiment on HCT-116 colon, 4880 nM; in the experiment with TK-10 renal, 19300 nM; in the experiment on CAKI-1 renal, 16400 nM; in the experiment with PC-3 prostate it was 16800 nM. The figures for the TGI in the experiment on HCC-2998 colon, in the experiment on MCF7 breast and with MDA-MB-435 were 18800 nM, 4820 nM and 4460 nM, respectively.

On to `Cn1cc(C2=C(N3CCOCC3)C(=O)NC2=O)c2ccccc21`, for which the GI50 with OVCAR-4 ovarian, with OVCAR-8 ovarian, in the experiment on HCT-116 colon, in the experiment on TK-10 renal, in the experiment on NCI-H226 lung and in the experiment with CAKI-1 renal was over 25000 nM throughout. For the same molecule, the GI50 with PC-3 prostate, with HCC-2998 colon, with MCF7 breast and in the experiment on MDA-MB-435 was over 25000 nM in each case. The TGI with OVCAR-4 ovarian, in the experiment on OVCAR-8 ovarian, in the experiment with HCT-116 colon, in the experiment on TK-10 renal, in the experiment on NCI-H226 lung and in the experiment on CAKI-1 renal was over 25000 nM each time. Also, the TGI with PC-3 prostate, with HCC-2998 colon, with MCF7 breast and with MDA-MB-435 was over 25000 nM in each case.

On to `CN(C)CCCn1c(-c2nonc2N)nc2cnccc21`, for which the GI50 in the experiment on OVCAR-4 ovarian is over 25000 nM; in the experiment on OVCAR-8 ovarian, over 25000 nM; with HCT-116 colon it was over 25000 nM; with TK-10 renal it was over 9980 nM; in the experiment with NCI-H226 lung it was over 4990 nM; in the experiment with CAKI-1 renal, over 25000 nM. The GI50 in the experiment with PC-3 prostate, in the experiment on HCC-2998 colon, in the experiment with MCF7 breast and with MDA-MB-435 was over 25000 nM each time. The TGI in the experiment with OVCAR-4 ovarian, with OVCAR-8 ovarian, in the experiment on HCT-116 colon, in the experiment with TK-10 renal, in the experiment with NCI-H226 lung and with CAKI-1 renal was over 25000 nM throughout. The TGI in the experiment on PC-3 prostate, in the experiment on HCC-2998 colon, in the experiment with MCF7 breast and in the experiment with MDA-MB-435 was over 25000 nM throughout.

Take `COc1ccc(Cn2cc3c(c2-c2cc(OC)c(OC)c(OC)c2)CCc2cnoc2-3)cc1`: the GI50 in the experiment with OVCAR-4 ovarian was 768 nM; in the experiment on OVCAR-8 ovarian, 485 nM; with HCT-116 colon it was 386 nM; in the experiment on TK-10 renal, 842 nM; with NCI-H226 lung, 1580 nM; in the experiment with CAKI-1 renal it was 334 nM. In addition, the GI50 is 473 nM with PC-3 prostate, 557 nM in the experiment with HCC-2998 colon, 163 nM with MCF7 breast and 40.4 nM with MDA-MB-435. In addition, the TGI in the experiment with OVCAR-4 ovarian, in the experiment on OVCAR-8 ovarian, in the experiment on HCT-116 colon, in the experiment with TK-10 renal, with NCI-H226 lung and in the experiment on CAKI-1 renal was over 100000 nM each time. In addition, the TGI in the experiment on PC-3 prostate is over 100000 nM; in the experiment with HCC-2998 colon it was over 100000 nM; in the experiment with MCF7 breast it was over 100000 nM; in the experiment with MDA-MB-435, 208 nM.
